{"source": "ChEMBL document CHEMBL4177603", "about": "(Bioorg Med Chem Lett, 2017)", "key": {"[1]": {"molecular_target": "Sodium-dependent noradrenaline transporter (Homo sapiens, UniProt P23975)", "sequence (P23975 whole entry)": "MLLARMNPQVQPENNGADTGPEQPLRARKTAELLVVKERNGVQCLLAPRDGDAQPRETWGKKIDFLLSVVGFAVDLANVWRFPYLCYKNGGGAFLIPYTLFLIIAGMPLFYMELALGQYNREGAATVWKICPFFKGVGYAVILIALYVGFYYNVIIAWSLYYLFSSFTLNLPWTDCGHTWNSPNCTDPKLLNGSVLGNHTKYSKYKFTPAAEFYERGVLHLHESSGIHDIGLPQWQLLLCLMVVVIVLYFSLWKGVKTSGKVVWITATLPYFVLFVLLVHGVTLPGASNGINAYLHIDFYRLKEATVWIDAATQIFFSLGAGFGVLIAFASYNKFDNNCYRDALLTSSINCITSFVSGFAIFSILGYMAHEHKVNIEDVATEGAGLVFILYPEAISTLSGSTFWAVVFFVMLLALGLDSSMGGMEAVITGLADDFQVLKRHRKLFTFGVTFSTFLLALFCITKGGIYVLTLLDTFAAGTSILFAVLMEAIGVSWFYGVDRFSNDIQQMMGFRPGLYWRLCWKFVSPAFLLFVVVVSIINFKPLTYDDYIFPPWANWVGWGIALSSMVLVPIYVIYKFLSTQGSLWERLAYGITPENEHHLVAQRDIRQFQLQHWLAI", "test": "Displacement of [3H]nisoxetine from recombinant human norepinephrine transporter after 120 min by scintillation counting method"}, "[2]": {"molecular_target": "Delta-type opioid receptor (Homo sapiens) (UniProt P41143)", "sequence (P41143 whole entry)": "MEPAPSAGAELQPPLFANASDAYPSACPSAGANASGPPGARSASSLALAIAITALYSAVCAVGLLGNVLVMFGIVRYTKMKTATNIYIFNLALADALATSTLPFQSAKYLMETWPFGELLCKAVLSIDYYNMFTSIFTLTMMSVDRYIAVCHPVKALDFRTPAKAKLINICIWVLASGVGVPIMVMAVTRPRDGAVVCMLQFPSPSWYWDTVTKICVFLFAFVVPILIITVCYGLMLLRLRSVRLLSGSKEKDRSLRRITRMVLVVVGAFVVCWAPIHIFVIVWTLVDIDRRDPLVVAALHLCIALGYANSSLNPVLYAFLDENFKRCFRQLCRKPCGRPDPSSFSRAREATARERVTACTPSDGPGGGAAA", "test": "Agonist activity at human DOR expressed in Chem1 cells assessed as increase in calcium flux at 10 uM by fluorimetric method relative to control", "assay_type": "functional, cell-based"}, "[3]": {"test": "Biliary clearance in rat at 0.3 mg/kg, iv via infusion for 1 hr", "assay_type": "ADME, organism-based, Bile", "details": "in vivo"}, "[4]": {"molecular_target": "Sodium channel protein type 10 subunit alpha (Homo sapiens, UniProt Q9Y5Y9)", "test": "Inhibition of human Nav1.8 expressed in HEK cells by automated patchXpress electrophysiology method", "assay_type": "cell-based"}, "Rattus norvegicus": {"species": "Rattus norvegicus", "test": "Displacement of [3H]diltiazem from L-type calcium channel diltiazem binding site in rat brain at 10 uM after 120 mins by scintillation counting method"}, "Homo sapiens": {"species": "Homo sapiens", "test": "Displacement of [125I]alpha-bungarotoxin from human muscle type nAChR at 10 uM after 120 mins by scintillation counting method"}, "[5]": {"molecular_target": "Sodium channel protein type 5 subunit alpha (Homo sapiens, UniProt Q14524)", "sequence (Q14524 whole entry)": "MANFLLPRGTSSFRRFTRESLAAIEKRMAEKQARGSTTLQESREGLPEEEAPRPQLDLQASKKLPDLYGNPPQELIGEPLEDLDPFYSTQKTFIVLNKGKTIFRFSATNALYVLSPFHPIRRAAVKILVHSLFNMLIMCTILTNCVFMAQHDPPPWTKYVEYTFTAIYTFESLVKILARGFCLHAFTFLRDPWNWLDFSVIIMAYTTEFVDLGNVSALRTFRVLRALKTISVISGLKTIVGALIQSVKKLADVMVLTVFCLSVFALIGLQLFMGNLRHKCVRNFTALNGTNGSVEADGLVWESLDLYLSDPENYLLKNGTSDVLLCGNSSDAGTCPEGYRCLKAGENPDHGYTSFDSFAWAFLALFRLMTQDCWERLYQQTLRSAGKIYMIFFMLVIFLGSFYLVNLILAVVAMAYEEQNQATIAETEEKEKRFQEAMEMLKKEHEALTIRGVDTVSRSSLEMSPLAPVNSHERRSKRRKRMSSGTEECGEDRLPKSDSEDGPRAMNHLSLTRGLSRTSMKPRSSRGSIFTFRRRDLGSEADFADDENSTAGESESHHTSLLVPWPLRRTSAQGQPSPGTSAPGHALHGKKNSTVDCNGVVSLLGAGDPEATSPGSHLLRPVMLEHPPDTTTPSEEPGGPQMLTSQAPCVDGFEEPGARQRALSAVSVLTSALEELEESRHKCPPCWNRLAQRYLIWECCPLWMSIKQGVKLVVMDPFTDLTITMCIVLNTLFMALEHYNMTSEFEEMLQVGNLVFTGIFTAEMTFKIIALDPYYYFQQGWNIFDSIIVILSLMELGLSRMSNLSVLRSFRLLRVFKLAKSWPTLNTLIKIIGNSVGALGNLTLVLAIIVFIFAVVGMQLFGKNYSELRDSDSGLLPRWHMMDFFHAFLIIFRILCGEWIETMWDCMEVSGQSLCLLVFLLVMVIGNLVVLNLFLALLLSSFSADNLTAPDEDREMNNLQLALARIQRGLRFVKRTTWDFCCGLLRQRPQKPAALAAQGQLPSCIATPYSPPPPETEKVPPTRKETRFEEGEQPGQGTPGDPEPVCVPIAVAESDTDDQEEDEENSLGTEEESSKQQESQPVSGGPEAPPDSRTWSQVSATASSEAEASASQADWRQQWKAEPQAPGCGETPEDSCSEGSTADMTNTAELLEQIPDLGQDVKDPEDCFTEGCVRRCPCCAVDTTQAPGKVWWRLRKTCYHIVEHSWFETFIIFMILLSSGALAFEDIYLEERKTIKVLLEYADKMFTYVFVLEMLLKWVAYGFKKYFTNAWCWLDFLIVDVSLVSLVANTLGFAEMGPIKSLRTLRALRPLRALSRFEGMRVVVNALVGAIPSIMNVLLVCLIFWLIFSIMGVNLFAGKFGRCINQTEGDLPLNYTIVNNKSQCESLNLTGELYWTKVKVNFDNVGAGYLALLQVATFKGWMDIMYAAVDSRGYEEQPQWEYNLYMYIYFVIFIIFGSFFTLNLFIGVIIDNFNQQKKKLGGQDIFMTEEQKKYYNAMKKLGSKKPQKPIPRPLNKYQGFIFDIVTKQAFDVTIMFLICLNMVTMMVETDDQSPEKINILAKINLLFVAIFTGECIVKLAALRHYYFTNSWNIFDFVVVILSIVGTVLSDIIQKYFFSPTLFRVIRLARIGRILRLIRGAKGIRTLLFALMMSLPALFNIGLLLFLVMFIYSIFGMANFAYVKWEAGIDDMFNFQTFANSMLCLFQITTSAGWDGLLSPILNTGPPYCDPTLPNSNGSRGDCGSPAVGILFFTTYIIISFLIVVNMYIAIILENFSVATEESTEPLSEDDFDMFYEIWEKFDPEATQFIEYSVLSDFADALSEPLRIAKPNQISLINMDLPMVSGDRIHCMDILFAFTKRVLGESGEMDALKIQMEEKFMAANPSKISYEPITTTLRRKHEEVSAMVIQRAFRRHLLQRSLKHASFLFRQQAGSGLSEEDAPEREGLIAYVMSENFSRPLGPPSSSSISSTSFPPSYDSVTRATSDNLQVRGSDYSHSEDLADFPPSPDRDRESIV", "test": "Inhibition of human Nav1.5 expressed in HEK cells by automated patchXpress electrophysiology method", "assay_type": "ADME, cell-based"}, "[6]": {"molecular_target": "3',5'-cyclic-AMP phosphodiesterase 4D (Homo sapiens) (UniProt Q08499)", "sequence (Q08499 whole entry)": "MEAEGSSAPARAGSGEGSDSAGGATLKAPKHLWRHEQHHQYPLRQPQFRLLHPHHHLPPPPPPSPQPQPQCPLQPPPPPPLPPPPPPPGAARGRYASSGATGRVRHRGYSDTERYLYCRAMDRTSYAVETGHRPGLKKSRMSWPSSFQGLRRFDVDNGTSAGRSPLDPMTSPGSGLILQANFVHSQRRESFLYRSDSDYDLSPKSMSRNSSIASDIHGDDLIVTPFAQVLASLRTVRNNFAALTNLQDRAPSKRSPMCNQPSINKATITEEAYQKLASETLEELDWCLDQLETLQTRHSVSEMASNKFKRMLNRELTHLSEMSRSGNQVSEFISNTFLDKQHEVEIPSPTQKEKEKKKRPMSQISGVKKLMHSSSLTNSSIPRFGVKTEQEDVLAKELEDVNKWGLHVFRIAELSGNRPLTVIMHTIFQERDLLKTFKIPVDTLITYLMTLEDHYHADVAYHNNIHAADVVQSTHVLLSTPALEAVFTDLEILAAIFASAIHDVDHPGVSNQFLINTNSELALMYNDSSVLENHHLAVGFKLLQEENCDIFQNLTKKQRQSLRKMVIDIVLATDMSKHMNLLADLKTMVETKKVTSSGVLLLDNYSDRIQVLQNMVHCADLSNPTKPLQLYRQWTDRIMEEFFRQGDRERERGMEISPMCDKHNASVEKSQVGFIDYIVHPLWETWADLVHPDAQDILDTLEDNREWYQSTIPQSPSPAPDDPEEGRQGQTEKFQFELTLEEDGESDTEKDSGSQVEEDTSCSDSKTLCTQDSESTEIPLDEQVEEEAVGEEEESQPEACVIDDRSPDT", "test": "Inhibition of recombinant human PDE4D2 at 10 uM using [3H]cAMP as substrate measured after 20 mins by scintillation counting method relative to control"}, "[7]": {"molecular_target": "Beta-1 adrenergic receptor (Homo sapiens) (UniProt P08588)", "sequence (P08588 whole entry, looked up)": "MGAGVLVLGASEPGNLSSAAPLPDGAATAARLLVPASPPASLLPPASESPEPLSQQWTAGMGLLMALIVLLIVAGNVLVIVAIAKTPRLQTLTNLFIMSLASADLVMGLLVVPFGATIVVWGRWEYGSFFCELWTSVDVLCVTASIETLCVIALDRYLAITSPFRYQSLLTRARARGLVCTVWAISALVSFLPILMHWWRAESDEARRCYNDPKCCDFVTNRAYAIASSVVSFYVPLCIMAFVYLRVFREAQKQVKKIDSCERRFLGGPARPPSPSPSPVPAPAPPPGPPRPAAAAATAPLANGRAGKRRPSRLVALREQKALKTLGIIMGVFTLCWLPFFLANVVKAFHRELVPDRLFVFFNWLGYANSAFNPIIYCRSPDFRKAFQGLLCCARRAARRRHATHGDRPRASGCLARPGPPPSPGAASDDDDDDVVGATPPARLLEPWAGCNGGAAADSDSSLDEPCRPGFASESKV", "test": "Agonist activity at recombinant human beta1 receptor expressed in HEK293 cells assessed as increase in cAMP accumulation at 10 uM after 30 mins by HTRF assay relative to control", "assay_type": "functional, cell-based"}, "[8]": {"molecular_target": "5-hydroxytryptamine receptor 1A (Homo sapiens) (UniProt P08908)", "sequence (P08908 whole entry)": "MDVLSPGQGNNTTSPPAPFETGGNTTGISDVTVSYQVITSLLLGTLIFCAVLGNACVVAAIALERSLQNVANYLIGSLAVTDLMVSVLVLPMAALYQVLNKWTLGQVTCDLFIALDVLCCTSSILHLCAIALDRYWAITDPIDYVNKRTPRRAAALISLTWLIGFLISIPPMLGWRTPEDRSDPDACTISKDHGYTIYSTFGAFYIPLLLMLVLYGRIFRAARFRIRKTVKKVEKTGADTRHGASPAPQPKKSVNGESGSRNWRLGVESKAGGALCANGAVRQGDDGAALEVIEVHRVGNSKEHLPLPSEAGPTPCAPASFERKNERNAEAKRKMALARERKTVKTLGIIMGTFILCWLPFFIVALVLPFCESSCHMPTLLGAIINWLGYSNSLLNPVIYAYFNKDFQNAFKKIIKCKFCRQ", "test": "Agonist activity at human 5-HT1A receptor expressed in mouse BA/F3 cells assessed as increase in calcium flux at 10 uM by fluorimetric method relative to control", "assay_type": "functional, cell-based"}, "[9]": {"test": "Solubility of the compound in aqueous buffer at pH 7.1", "assay_type": "physicochemical"}, "[10]": {"test": "Inhibition of dog Nav1.7 expressed in HEK cells by automated patchXpress electrophysiology method", "assay_type": "cell-based", "details": "HEK293"}, "[11]": {"test": "Intrinsic clearance in dog hepatocytes assessed per million cells", "assay_type": "ADME, cell-based, Canis lupus familiaris, Hepatocyte", "details": "read-out: CLH"}}}
{"smiles": "N#Cc1cc(S(=O)(=O)Nc2ncns2)ccc1Oc1ccc(-c2cccc(C(F)(F)F)c2)cc1-c1ccnc(CNCCC2CCNCC2)c1", "values": [{"measurement": "IC50", "setting": "[1]", "value": 4.25, "unit": "µM"}, {"measurement": "Ki", "setting": "[1]", "value": 3.16, "unit": "µM"}, {"measurement": "Activity", "setting": "[2]", "value": -49, "unit": "%"}, {"measurement": "CL", "setting": "[3]", "value": 44, "unit": "mL/min/kg"}, {"measurement": "IC50", "setting": "[4]", "value": "10 to 26", "unit": "µM"}, {"measurement": "inhibition", "setting": "Rattus norvegicus", "value": 40, "unit": "%"}, {"measurement": "inhibition", "setting": "Homo sapiens", "value": 21, "unit": "%"}, {"measurement": "IC50", "setting": "[5]", "value": "2 to 2.59", "unit": "µM"}, {"measurement": "inhibition", "setting": "[6]", "value": -8, "unit": "%"}, {"measurement": "Activity", "setting": "[7]", "value": -4, "unit": "%"}, {"measurement": "Activity", "setting": "[8]", "value": -34, "unit": "%"}, {"measurement": "solubility", "setting": "[9]", "value": "> 2570", "unit": "µg/mL"}, {"measurement": "IC50", "setting": "[10]", "value": "< 0.03", "unit": "nM"}, {"measurement": "hepatocyte CLint", "setting": "[11]", "value": "< 6", "unit": "µL/min/1e6 cells"}]}
